Data taken from patent publication US7371822B2, “Human G-protein coupled receptor variant of HM74, HGPRBMY74” (Bristol-Myers Squibb Company, priority 2003, dated 2008).
Like-named read-outs stand apart in the source and are kept apart here.

Test system: human kidney 293E cells stably transfected with Gαiq—5
Test: cells
Conditions: 293E cells with Gαiq—5 coding region only
Description: The growth medium in the 6-well plate was replaced with antibiotic-free medium at 3 ml per well. DNA complexes were added at 320 μl per well and plates were returned to the incubator. […] 25 μl of this suspension was added to 30 ml of selective medium in a 15 cm tissue culture plate. Cells were maintained in selective medium for approximately two weeks. Five single clones were isolated and grown in 24-well, then 6-well, then T-75 tissue culture plates.
Thirty hours later cells were loaded with 100 μl loading dye. […] A stock solution of Probenecid (Sigma P8761) was prepared by dissolving 70 mg in 500 μl 1 M NaOH and then adding 500 μl of FIPR assay buffer. This was added to the loading solution at a final concentration of 700 μg/ml. After adding the loading dye, cells were returned to the incubator for one hour.
After one hour loading, dye was removed from the wells by gentle aspiration and replaced with 120 μl of FLIPR assay buffer.
Data were analyzed and plotted using XLfit (IDBS).

Q: With O=C(O)c1cccnc1 [nicotinic acid, Nicotinic acid] as the compound, how does the EC50 (Homo sapiens, read-out: calculated EC50, FIG. 5) read?
A: The EC50 was 833 nM.

Q: And the EC50 (read-out: calculated EC50, FIG. 5)?
A: The EC50 was 823 nM.
